The target of series [1] is K562 αvβ6:mCherry cells (αvβ6 integrin) (Homo sapiens, UniProt P06756+P18564). Type of series: binding.
A further series concerns K562 cells. Type of series: binding.
A short description of the next series: in vitro. Particulars: mouse, serum.
For series [2] the following is noted: mouse.
Another series in a line: normal mouse serum. The settings on record: 37 °C.

Entries after “also recorded” stand apart in the source; their conditions may differ. [ ]: non-standard residue; d: D form. The star is where a group is joined. Biotin = O=C1N[C@H]2[C@H](CS[C@H]2CCCCC(=O)*)N1; Cit = NC(=O)NCCC[C@H](N)C(=O)O

As a reminder, the half-life is the time in which the quantity being followed falls by half. A high value points to slow decline.

Sequence of K562 αvβ6:mCherry cells (αvβ6 integrin) (P06756 31-889 limits assumed): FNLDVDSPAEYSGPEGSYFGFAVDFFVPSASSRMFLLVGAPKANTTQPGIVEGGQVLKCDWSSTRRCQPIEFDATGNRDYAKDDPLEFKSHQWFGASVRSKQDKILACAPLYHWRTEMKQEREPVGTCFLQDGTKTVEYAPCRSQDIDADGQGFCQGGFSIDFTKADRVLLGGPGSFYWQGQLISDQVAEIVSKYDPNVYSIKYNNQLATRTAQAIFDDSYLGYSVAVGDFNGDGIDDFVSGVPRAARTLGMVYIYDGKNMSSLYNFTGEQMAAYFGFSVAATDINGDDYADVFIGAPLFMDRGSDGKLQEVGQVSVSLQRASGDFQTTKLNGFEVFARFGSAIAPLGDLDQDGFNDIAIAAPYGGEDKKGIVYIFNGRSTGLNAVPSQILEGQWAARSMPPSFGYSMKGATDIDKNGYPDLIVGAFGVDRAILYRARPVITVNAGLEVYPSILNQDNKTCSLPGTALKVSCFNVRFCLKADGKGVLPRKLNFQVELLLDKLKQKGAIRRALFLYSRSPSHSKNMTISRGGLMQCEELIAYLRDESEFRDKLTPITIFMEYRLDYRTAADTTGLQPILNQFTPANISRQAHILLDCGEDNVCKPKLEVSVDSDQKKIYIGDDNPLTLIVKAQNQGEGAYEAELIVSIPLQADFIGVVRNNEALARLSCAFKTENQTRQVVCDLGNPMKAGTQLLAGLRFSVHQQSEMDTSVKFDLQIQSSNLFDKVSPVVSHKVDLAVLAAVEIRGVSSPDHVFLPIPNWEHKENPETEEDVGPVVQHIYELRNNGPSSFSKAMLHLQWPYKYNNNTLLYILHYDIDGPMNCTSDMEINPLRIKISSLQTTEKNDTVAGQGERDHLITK
Sequence of K562 αvβ6:mCherry cells (αvβ6 integrin) (P06756 891-1048 partner limits assumed): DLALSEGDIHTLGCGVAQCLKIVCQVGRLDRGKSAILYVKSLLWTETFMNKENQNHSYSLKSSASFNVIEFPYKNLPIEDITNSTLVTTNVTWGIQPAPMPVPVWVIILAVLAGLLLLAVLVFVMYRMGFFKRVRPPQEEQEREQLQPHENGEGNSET
Sequence of K562 αvβ6:mCherry cells (αvβ6 integrin) (P18564 22-788 limits assumed): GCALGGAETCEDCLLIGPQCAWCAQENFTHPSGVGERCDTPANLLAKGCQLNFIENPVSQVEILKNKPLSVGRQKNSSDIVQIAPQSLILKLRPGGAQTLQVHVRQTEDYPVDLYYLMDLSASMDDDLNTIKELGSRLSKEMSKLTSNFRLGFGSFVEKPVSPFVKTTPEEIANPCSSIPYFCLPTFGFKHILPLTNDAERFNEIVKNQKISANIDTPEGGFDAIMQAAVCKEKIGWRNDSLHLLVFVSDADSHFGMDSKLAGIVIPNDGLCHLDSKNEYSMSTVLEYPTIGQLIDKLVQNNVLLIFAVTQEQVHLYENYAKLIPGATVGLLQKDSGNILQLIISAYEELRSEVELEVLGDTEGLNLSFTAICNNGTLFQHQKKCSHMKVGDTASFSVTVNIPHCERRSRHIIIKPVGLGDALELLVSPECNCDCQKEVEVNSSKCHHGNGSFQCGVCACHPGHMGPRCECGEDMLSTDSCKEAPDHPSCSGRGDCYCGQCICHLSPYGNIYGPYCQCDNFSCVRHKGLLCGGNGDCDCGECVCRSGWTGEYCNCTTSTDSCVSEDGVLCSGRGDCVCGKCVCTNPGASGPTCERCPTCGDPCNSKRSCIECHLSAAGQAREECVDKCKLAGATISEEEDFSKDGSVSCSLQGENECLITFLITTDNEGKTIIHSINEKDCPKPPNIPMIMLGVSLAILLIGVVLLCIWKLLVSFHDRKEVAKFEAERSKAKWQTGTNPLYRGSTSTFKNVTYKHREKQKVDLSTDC

Take `CC(C)C[C@@H]1NC(=O)[C@H](CC(=O)O)NC(=O)CNC(=O)[C@H](CCCNC(=N)N)NC(=O)[C@H](CC(C)C)NC(=O)[C@H](CC(N)=O)NC(=O)[C@@H]2CCCN2C(=O)[C@H](C(C)C)NC(=O)[C@H](C)NC(=O)[C@@H](NC(=O)CCCC[C@@H]2SC[C@@H]3NC(=O)N[C@@H]32)CSc2c(F)c(F)c(c(F)c2F)-c2c(F)c(F)c(c(F)c2F)SC[C@@H](C(=O)N[C@@H](CCCNC(=N)N)C(=O)N[C@H](C(=O)N[C@@H](CCCCN)C(N)=O)[C@@H](C)O)NC(=O)[C@H](C(C)C)NC(=O)[C@H](CCCCN)NC(=O)[C@H](CCC(N)=O)NC(=O)[C@H](C)NC(=O)[C@H](CC(C)C)NC(=O)[C@H](C(C)C)NC(=O)[C@H](CCC(N)=O)NC1=O` [C1C18 DFBP]: the “binding to K562 αvβ6:mCherry cells (in words)” value in series [1] is “high affinity and specificity comparable to the original A20FMDV2 peptide”.

`CC(C)C[C@@H]1NC(=O)[C@H](CC(=O)O)NC(=O)CNC(=O)[C@H](CCCNC(=N)N)NC(=O)[C@H](CC(C)C)NC(=O)[C@H](CC(N)=O)NC(=O)[C@@H]2CCCN2C(=O)[C@H](C(C)C)NC(=O)[C@H](C)NC(=O)[C@@H](NC(=O)CCCC[C@@H]2SC[C@@H]3NC(=O)N[C@@H]32)CSc2c(F)c(F)c(c(F)c2F)-c2c(F)c(F)c(c(F)c2F)SC[C@@H](C(=O)N[C@H](C(=O)N[C@@H](CCCCN)C(N)=O)[C@@H](C)O)NC(=O)[C@H](C)NC(=O)[C@H](C(C)C)NC(=O)[C@H](CCCCN)NC(=O)[C@H](CCC(N)=O)NC(=O)[C@H](C)NC(=O)[C@H](CC(C)C)NC(=O)[C@H](C(C)C)NC(=O)[C@H](CCC(N)=O)NC1=O` [C1C19 DFBP]: the “binding to parental K562 cells (in words)” value in the series on K562 cells is recorded as “significantly bound to parental K562 cells at high concentrations”.

Take `CC(C)C[C@@H]1NC(=O)[C@H](CC(=O)O)NC(=O)CNC(=O)[C@H](CCCNC(=N)N)NC(=O)[C@H](CC(C)C)NC(=O)[C@H](CC(N)=O)NC(=O)[C@@H]2CCCN2C(=O)[C@H](C(C)C)NC(=O)[C@H](C)NC(=O)[C@@H](NC(=O)CCCC[C@@H]2SC[C@@H]3NC(=O)N[C@@H]32)CSc2c(F)c(F)c(c(F)c2F)-c2c(F)c(F)c(c(F)c2F)SC[C@@H](C(=O)N[C@@H](CCCCN)C(N)=O)NC(=O)[C@H](CCCNC(=N)N)NC(=O)[C@H](C)NC(=O)[C@H](C(C)C)NC(=O)[C@H](CCCCN)NC(=O)[C@H](CCC(N)=O)NC(=O)[C@H](C)NC(=O)[C@H](CC(C)C)NC(=O)[C@H](C(C)C)NC(=O)[C@H](CCC(N)=O)NC1=O` [C1C20 DFBP]: the “binding to K562 αvβ6:mCherry cells (in words)” value in series [1] is “high affinity and specificity comparable to the original A20FMDV2 peptide”.

The compound `CC(C)C[C@@H]1NC(=O)[C@H](CC(=O)O)NC(=O)CNC(=O)[C@H](CCCNC(=N)N)NC(=O)[C@H](CC(C)C)NC(=O)[C@H](CC(N)=O)NC(=O)[C@@H]2CCCN2C(=O)[C@H](C(C)C)NC(=O)[C@@H](NC(=O)[C@H](CC(N)=O)NC(=O)CCCC[C@@H]2SC[C@@H]3NC(=O)N[C@@H]32)CSc2c(F)c(F)c(c(F)c2F)-c2c(F)c(F)c(c(F)c2F)SC[C@@H](C(=O)N[C@@H](CCCNC(N)=O)C(=O)N[C@H](C(=O)N[C@@H](CCCCN)C(=O)N[C@H](C)C(N)=O)[C@@H](C)O)NC(=O)[C@H](C(C)C)NC(=O)[C@H](CCCCN)NC(=O)[C@H](CCC(N)=O)NC(=O)[C@H](C)NC(=O)[C@H](CC(C)C)NC(=O)[C@H](C(C)C)NC(=O)[C@H](CCC(N)=O)NC1=O` [C2C18 CitTKAD DFBP] gave a half-life in the series “in vitro” of 4.96 h.

Consider `CC(C)C[C@@H]1NC(=O)[C@H](CC(=O)O)NC(=O)CNC(=O)[C@H](CCCNC(=N)N)NC(=O)[C@H](CC(C)C)NC(=O)[C@H](CC(N)=O)NC(=O)[C@@H]2CCCN2C(=O)[C@H](C(C)C)NC(=O)[C@@H](NC(=O)[C@H](CC(N)=O)NC(=O)CCCC[C@@H]2SC[C@@H]3NC(=O)N[C@@H]32)CSc2c(F)c(F)c(c(F)c2F)-c2c(F)c(F)c(c(F)c2F)SC[C@@H](C(=O)N[C@@H](CCCNC(=N)N)C(=O)N[C@H](C(=O)N[C@@H](CCCCN)C(N)=O)[C@@H](C)O)NC(=O)[C@H](C(C)C)NC(=O)[C@H](CCCCN)NC(=O)[C@H](CCC(N)=O)NC(=O)[C@H](C)NC(=O)[C@H](CC(C)C)NC(=O)[C@H](C(C)C)NC(=O)[C@H](CCC(N)=O)NC1=O` [C2C18 DFBP], for which the “binding to K562 αvβ6:mCherry cells (in words)” value in series [1] was “high affinity and specificity comparable to the original A20FMDV2 peptide”.

Take `CC(C)C[C@@H]1NC(=O)[C@H](CC(=O)O)NC(=O)CNC(=O)[C@H](CCCNC(=N)N)NC(=O)[C@H](CC(C)C)NC(=O)[C@H](CC(N)=O)NC(=O)[C@@H]2CCCN2C(=O)[C@H](C(C)C)NC(=O)[C@@H](NC(=O)[C@H](CC(N)=O)NC(=O)CCCC[C@@H]2SC[C@@H]3NC(=O)N[C@@H]32)CSc2c(F)c(F)c(c(F)c2F)-c2c(F)c(F)c(c(F)c2F)SC[C@@H](C(=O)N[C@H](CCCNC(=N)N)C(=O)N[C@H](C(=O)N[C@@H](CCCCN)C(=O)N[C@H](C)C(N)=O)[C@@H](C)O)NC(=O)[C@H](C(C)C)NC(=O)[C@H](CCCCN)NC(=O)[C@H](CCC(N)=O)NC(=O)[C@H](C)NC(=O)[C@H](CC(C)C)NC(=O)[C@H](C(C)C)NC(=O)[C@H](CCC(N)=O)NC1=O` [C2C18 RDTKAD DFBP]: the “reduced binding fluorescence (maximal signal versus A20FMDV2, Fig. 3B)” value in series [1] is recorded as ~60%. Besides, the “t1/2 of intact peptide in serum” value in series [2] worked out at 4.518 h.

On to `CC(C)C[C@@H]1NC(=O)[C@H](CC(=O)O)NC(=O)CNC(=O)[C@H](CCCNC(=N)N)NC(=O)[C@H](CC(C)C)NC(=O)[C@H](CC(N)=O)NC(=O)[C@@H]2CCCN2C(=O)[C@H](C(C)C)NC(=O)[C@@H](NC(=O)[C@H](CC(N)=O)NC(=O)CCCC[C@@H]2SC[C@@H]3NC(=O)N[C@@H]32)CSc2c(F)c(F)c(c(F)c2F)-c2c(F)c(F)c(c(F)c2F)SC[C@@H](C(=O)N[C@H](C(=O)N[C@@H](CCCCN)C(N)=O)[C@@H](C)O)NC(=O)[C@H](C)NC(=O)[C@H](C(C)C)NC(=O)[C@H](CCCCN)NC(=O)[C@H](CCC(N)=O)NC(=O)[C@H](C)NC(=O)[C@H](CC(C)C)NC(=O)[C@H](C(C)C)NC(=O)[C@H](CCC(N)=O)NC1=O` [C2C19 DFBP], for which, in the series with K562 cells, the “binding to parental K562 cells (in words)” value is recorded as “significantly bound to parental K562 cells at high concentrations”.

For the compound “Biotin-CADVPNLRGDLQVLADQKVCRDTKDAD-NH2 (cysteine pairing not given here)”, in “normal mouse serum” (up to 24 h), the cleaved bond entry is listed as “KD21-AD22, 24 h; also recorded: L6-Arg7, major” and the fragment found was 719: unidentified, 4 h.

For the compound “Biotin-CAVPNLRGDLQVLAQKVCRTK-NH2 (cysteine pairing not given here)”, the cleaved bond result in “normal mouse serum” (up to 6 h) is “C18-arginine19”.

On to “Biotin-CAVPNLRGDLQVLAQKVCRTK-NH2 (cysteine pairing not given here) [C1C18 DFBP]”, for which the cleaved bond result in the series “normal mouse serum” (up to 6 h) is reported as “C18-arginine19, 2 h”.

In the case of “Biotin-NCVPNLRGDLQVLAQKVCRDTKAD-NH2 (cysteine pairing not given here)”, in the series “normal mouse serum” (up to 24 h), the cleaved bond entry is “L6-Arg7, major, 8 h; also recorded: Arg7-G8, major, 8 h; also recorded: Asn1-C2, 24 h”.

For the compound “Biotin-NCVPNLRGDLQVLAQKVCRTK-NH2 (cysteine pairing not given here)”, the cleaved bond entry in the series “normal mouse serum” (up to 6 h) was “C18-arginine19, 2 h”.

On to “Biotin-NCVPNLRGDLQVLAQKVC[Cit]TKAD-NH2 (cysteine pairing not given here)”, for which, in the series “normal mouse serum” (up to 24 h), the cleaved bond entry is “Thr20-K21, 12 h”.

Consider biotin-NCVPhNLRGDLQVLAQKVCRDTKAD-amide, for which the cleaved bond entry in “normal mouse serum” (up to 24 h) was “Asn1-C2, 24 h”.

The values above are taken from paper PMC8138772 (The Journal of Biological Chemistry, 2021).
